{
  "source": "patent US8354410B2",
  "about": "(Bristol-Meyers Squibb Company, priority 2010, dated 2013)",
  "key": {"HCV replicon": {"system": "HCV replicon", "assay": "HCV replicon assay (FRET / luciferase reporter)", "format": "cell-based, HCV (HUH-7 cells)", "conditions": "Hepatitis C virus; HCV replicon cells", "excerpt": "FRET Assay Preparation. To perform the HCV FRET screening assay, 96-well cell culture plates were used. The FRET peptide (Anaspec, Inc.) (Taliani et al., Anal. Biochem. 1996, 240, 60-67) contains a fluorescence donor, EDANS, near one end of the peptide and an acceptor, DABCYL, near the other end. The fluorescence of the peptide is quenched by […] resonance energy transfer (RET) between the donor and the acceptor, but as the NS3 protease cleaves the peptide the products are released from RET quenching and the fluorescence of the donor becomes apparent. The assay reagent was made as follows: 5× cell Luciferase cell culture lysis reagent from Promega (#E153A) diluted to 1× with dH2O, NaCl added to 150 mM final, the FRET peptide diluted to 20 μM final from a 2 mM stock.\nTo prepare plates, HCV replicon cells, with or without a Renilla luciferase reporter gene, were trypsinized and placed into each well of a 96-well plate with titrated test compounds added in columns 3 through 12; columns 1 and 2 contained a control compound (HCV protease inhibitor), and the bottom row contained cells without compound. The plates were then placed in a CO2 incubator at 37° C.\nAssays. Subsequent to addition of the test compounds described above (FRET Assay Preparation), at various times the plate was removed and Alamar blue solution (Trek Diagnostics, #00-100) was added per well as a measure of cellular toxicity. After reading in a Cytoflour 4000 instrument (PE Biosystems), plates were rinsed with PBS and then used for FRET assay by the addition of 30 ul of the FRET peptide assay reagent described above (FRET Assay Preparation) per well. The plate was then placed into the Cytoflour 4000 instrument which had been set to 340 excite/490 emission, automatic mode for 20 cycles and the plate read in a kinetic mode. Typically, the signal to noise using an endpoint analysis after the reads was at least three-fold. Alternatively, after Alamar blue reading, plates were rinsed with PBS, 50 ul of DMEM (high glucose) without phenol red was added and plates were then used for luciferase assay using the Promega Dual-Glo Luciferase Assay System.\nCompound analysis was determined by quantification of the relative HCV replicon inhibition and the relative cytotoxicity values. To calculate cytoxicity values, the average Alamar Blue fluorescence signals from the control wells were set as 100% non-toxic. The individual signals in each of the compound test wells were then divided by the average control signal and multiplied by 100% to determine […]. To calculate the HCV replicon inhibition values, an average background value was obtained from the two wells containing the highest amount of HCV protease inhibitor at the end of the assay period. These numbers were similar to those obtained from naïve Huh-7 cells.\nThe background numbers were then subtracted from the average signal obtained from the control wells and this number was used as 100% activity. The individual signals in each of the compound test wells were then divided by the averaged control values after background subtraction and multiplied by 100% to determine percent activity. EC50 values for a protease inhibitor titration were calculated as the concentration which caused a 50% reduction in FRET or luciferase activity. The two numbers generated for the compound plate, percent cytoxicity and percent activity were used to determine compounds of interest for further analysis.\nThe HCV replicon luciferase assay was developed to monitor the inhibitory effects of compounds described in the disclosure on HCV viral replication. Utilization of a replicon luciferase reporter assay was first described by Krieger et al (Krieger N, Lohmann V, and Bartenschlager R, J. Virol. 75(10):4614-4624 (2001)). HUH-7 cells, constitutively expressing the HCV replicon, were grown in Dulbecco's Modified Eagle Media (DMEM) (Gibco-BRL) containing 10% Fetal calf serum (FCS) (Sigma) and 1 mg/ml G418 (Gibco-BRL). […]"}, "HCV NS5B": {"target": "T1, HCV NS5B (Hepatitis C virus genotype 1b, UniProt Q9WMX2)", "T1 construct": "The protein was expressed with an 18 amino acid C-terminal truncation to enhance the solubility; made in house; host or cells: E. coli BL21(DE3)", "T1 sequence (Q9WMX2 2420-2992)": "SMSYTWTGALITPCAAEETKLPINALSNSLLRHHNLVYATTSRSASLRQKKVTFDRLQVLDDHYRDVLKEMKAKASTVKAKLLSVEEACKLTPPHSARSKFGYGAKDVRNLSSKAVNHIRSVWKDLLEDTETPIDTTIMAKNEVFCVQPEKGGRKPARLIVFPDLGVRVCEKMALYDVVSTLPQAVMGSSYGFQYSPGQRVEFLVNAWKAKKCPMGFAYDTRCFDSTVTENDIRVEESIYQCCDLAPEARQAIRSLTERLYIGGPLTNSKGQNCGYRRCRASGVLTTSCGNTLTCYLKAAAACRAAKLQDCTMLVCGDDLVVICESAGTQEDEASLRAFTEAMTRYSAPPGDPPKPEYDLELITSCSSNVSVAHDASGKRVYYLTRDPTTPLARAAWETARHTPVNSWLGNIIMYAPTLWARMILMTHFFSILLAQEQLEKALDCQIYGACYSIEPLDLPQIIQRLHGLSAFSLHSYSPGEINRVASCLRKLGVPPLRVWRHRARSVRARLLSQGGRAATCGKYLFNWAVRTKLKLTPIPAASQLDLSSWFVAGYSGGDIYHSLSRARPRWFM", "assay": "HCV NS5B RdRp enzyme assay", "format": "biochemical", "conditions": "HCV NS5B RdRp genotype 1b; standard or modified assay not specified", "description": "HCV NS5B RdRp cloning, expression, and purification. The cDNA encoding the NS5B protein of HCV, genotype 1b, was cloned into the pET21a expression vector. The protein was expressed with an 18 amino acid C-terminal truncation to enhance the solubility. The E. coli competent cell line BL21(DE3) was used for expression of the protein. Cultures were grown at 37° C. for ˜4 hours until the cultures reached an optical density of 2.0 at 600 nm. The cultures were cooled to 20° C. and induced with 1 mM IPTG. Fresh ampicillin was added to a final concentration of 50 μg/ml and the cells were grown overnight at 20° C.\nCell pellets (3 L) were lysed for purification to yield 15-24 mgs of purified NS5B. The lysis buffer consisted of 20 mM Tris-HCl, pH 7.4, 500 mM NaCl, 0.5% triton X-100, 1 mM DTT, 1 mM EDTA, 20% glycerol, 0.5 mg/ml lysozyme, 10 mM MgCl2, 15 ug/ml deoxyribonuclease I, and Complete TM protease inhibitor tablets (Roche). After addition of the lysis buffer, frozen cell pellets were resuspended using a tissue homogenizer. To reduce the viscosity of the sample, aliquots of the lysate were sonicated on ice using a microtip attached to a Branson sonicator. The sonicated lysate was centrifuged at 100,000×g for 1 hr at 4° C. and filtered through a 0.2 μm filter unit (Corning).\nThe protein was purified using three sequential chromatography steps: Heparin sepharose CL-6B, polyU sepharose 4B, and Hitrap SP sepharose (Pharmacia). The chromatography buffers were identical to the lysis buffer but contained no lysozyme, deoxyribonuclease I, MgCl2 or protease inhibitor and the NaCl concentration of the buffer was adjusted according to the requirements for charging the protein onto the column. Each column was eluted with a NaCl gradient which varied in length from 5-50 column volumes depending on the column type. After the final chromatography step, the resulting purity of the enzyme is >90% based on SDS-PAGE analysis. The enzyme was aliquoted and stored at −80° C.\nStandard HCV NS5B RdRp enzyme assay. HCV RdRp genotype 1b assays were run in a final volume of 60 μl in 96 well plates (Costar 3912). The assay buffer is composed of 20 mM Hepes, pH 7.5, 2.5 mM KCl, 2.5 mM MgCl2, 1 mM DTT, 1.6 U RNAse inhibitor (Promega N2515), 0.1 mg/ml BSA (Promega R3961), and 2% glycerol. All compounds were serially diluted (3-fold) in DMSO and diluted further in water such that the final concentration of DMSO in the assay was 2%. HCV RdRp genotype 1b enzyme was used at a final concentration of 28 nM. A polyA template was used at 6 nM, and a biotinylated oligo-dT12 primer was used at 180 nM final concentration. Template was obtained commercially (Amersham 27-4110). Biotinylated primer was prepared by Sigma Genosys. 3H-UTP was used at 0.6 μCi (0.29 μM total UTP). Reactions were initiated by the addition of enzyme, incubated at 30° C. for 60 min, and stopped by adding 25 μl of 50 mM EDTA containing SPA beads (4 μg/μl, Amersham RPNQ 0007). Plates were read on a Packard Top Count NXT after >1 hr incubation at room temperature.\nModified HCV NS5B RdRp enzyme assay. A modified enzyme assay was performed essentially as described for the standard enzyme assay except for the following: The biotinylated oligo dT12 primer was precaptured on streptavidin-coated SPA beads by mixing primer and beads in assay buffer and incubating at room temperature for one hour. Unbound primer was removed after centrifugation. The primer-bound beads were resuspended in 20 mM Hepes buffer, pH 7.5 and used in the assay at final concentrations of 20 nM primer and 0.67 μg/μl beads. Order of addition in the assay: enzyme (14 nM) was added to diluted compound followed by the addition of a mixture of template (0.2 nM), 3H-UTP (0.6 μCi, 0.29 μM), and primer-bound beads, to initiate the reaction; concentrations given are final. Reactions were allowed to proceed for 4 hours at 30° C.\nIC50 values for compounds were determined using seven different [I]. […]"}, "HCV": {"system": "HCV", "conditions": "cited from earlier work"}},
  "data": [
    {"molecule": "CNC(=O)c1c(-c2ccc(F)cc2)oc2ccc(-c3cc(C(=O)NC4(c5nc6cnccc6o5)CC4)cc(F)c3C)cc12", "note": "[5-(3-fluoro-2-methyl-5-(1-(oxazolo[4,5-c]pyridin-2-yl)cyclopropylcarbamoyl)phenyl)-2-(4-fluorophenyl)-N-methylbenzofuran-3-carboxamide]", "values": [
      {"measurement": "EC50", "setting": "HCV replicon", "value": 3, "unit": "nM"},
      {"measurement": "IC50", "setting": "HCV NS5B", "value": 20, "unit": "nM"}
    ]},
    {"molecule": "CNC(=O)c1c(-c2ccc(F)cc2)oc2ccc(-c3cc(C(=O)NC4(c5ccc6ncccc6n5)CC4)cc(F)c3C)c(F)c12", "note": "[5-(5-(1-(1,5-naphthyridin-2-yl)cyclopropylcarbamoyl)-3-fluoro-2-methylphenyl)-4-fluoro-2-(4-fluorophenyl)-N-methylbenzofuran-3-carboxamide]", "values": [
      {"measurement": "EC50", "setting": "HCV replicon", "value": 100, "unit": "nM"},
      {"measurement": "IC50", "setting": "HCV NS5B", "value": 70, "unit": "nM"}
    ]},
    {"molecule": "CNC(=O)c1c(-c2ccc(F)cc2)oc2ccc(-c3cc(C(=O)NC4(c5ccc6cnccc6n5)CC4)c(OC)cc3C)c(F)c12", "note": "[5-(5-(1-(1,6-naphthyridin-2-yl)cyclopropylcarbamoyl)-4-methoxy-2-methylphenyl)-4-fluoro-2-(4-fluorophenyl)-N-methylbenzofuran-3-carboxamide]", "values": [
      {"measurement": "EC50", "setting": "HCV replicon", "value": 9, "unit": "nM"},
      {"measurement": "IC50", "setting": "HCV NS5B", "value": 100, "unit": "nM"}
    ]},
    {"molecule": "CNC(=O)c1c(-c2ccc(F)cc2)oc2ccc(-c3cc(C(=O)NC4(c5ccc6ccncc6n5)CC4)c(OC)cc3C)c(F)c12", "note": "[5-(5-(1-(1,7-naphthyridin-2-yl)cyclopropylcarbamoyl)-4-methoxy-2-methylphenyl)-4-fluoro-2-(4-fluorophenyl)-N-methylbenzofuran-3-carboxamide]", "values": [
      {"measurement": "EC50", "setting": "HCV replicon", "value": 6, "unit": "nM"},
      {"measurement": "IC50", "setting": "HCV NS5B", "value": 30, "unit": "nM"}
    ]},
    {"molecule": "CNC(=O)c1c(-c2ccc(F)cc2)oc2ccc(-c3cc(C(=O)N[C@H](C)c4nc5cnccc5o4)cc(F)c3C)c(F)c12", "note": "[5-(5-(1-(1H-imidazo[4,5-o]pyridin-2-yl)cyclopropylcarbamoyl)-2-methylphenyl)-4-fluoro-2-(4-fluorophenyl)-N-methylbenzofuran-3-carboxamide]", "values": [
      {"measurement": "EC50", "setting": "HCV replicon", "value": 40, "unit": "nM"},
      {"measurement": "IC50", "setting": "HCV NS5B", "value": 30, "unit": "nM"}
    ]},
    {"molecule": "CNC(=O)c1c(-c2ccc(F)cc2)oc2cc(N(CCO)S(C)(=O)=O)c(C3CC3)cc12", "note": "[HCV-796]", "values": [
      {"measurement": "hepatic toxicity", "setting": "HCV; extended dosing of the combination regimens", "value": "hepatic toxicity observed"},
      {"measurement": "HCV RNA levels in patients", "setting": "HCV; patients, single agent: transient decrease then rebound, more robust drop with interferon and ribavirin", "value": "ability to reduce HCV RNA levels in patients"}
    ]},
    {"molecule": "alpha-interferon and ribavirin", "values": [
      {"measurement": "sustained efficacy", "setting": "HCV; combination therapy (Poynard et al. 1998)", "value": "40 % of patients"}
    ]}
  ]
}
